In US20170224833A1, “SELF-ASSEMBLING MOLECULES THAT ACCUMULATE IN ACIDIC TUMOR MICROENVIRONMENTS” (OHIO STATE INNOVATION FOUNDATION, priority 2014, published 2017):
*: point of attachment. Palmitoyl = CCCCCCCCCCCCCCCC(=O)*

What was measured:
[1] = MRI r1 relaxivity measurement, 1.5 Tesla; assay type: physicochemical; conditions: 500 μM, 1.5 T
Method: An MR relaxometry phantom was built by fixing 5 mm NMR sample tubes containing PA samples at a concentration of 500 μM and pH values 4 and 10 in a 600 ml beaker filled with deionized water. The samples also contained 150 mM NaCl and 2.2 mM CaCl2. The phantom was scanned on a 1.5 Tesla Signa Excite MRI scanner using an 8-channel phased-array head coil (GE Healthcare, Milwaukee, Wis., USA). R relaxometry data were acquired using an Inversion Recovery Fast Spin-Echo (IR-FSE) sequence with the following parameters: inversion time TI=50/100/200/400/600/800/1200/1600/3200 ms; repetition time TR=8000 ms; echo time TE=11 ms; echo train length=10; 90° flip angle; 100×100 mm^2 field-of-view (FOV); 0.5 mm in-plane resolution; 2 mm slice thickness; single coronal slice placed at the center of the phantom. Sample longitudinal relaxation rates (R1) were calculated by fitting the MR signal intensities observed at different TIs (S(TI)) to a three parameter model [Lu et al., MRM 2004]:
S(TI)=|S0×(1−C×exp(−TI×R1))|
Where S0 is the equilibrium signal, C is a constant accounting for imperfect inversion of magnetization. The r1 relaxivity was calculated as the slope in the linear relationship between sample concentrations and their R1 relaxation rates.

[2] = 150 mM NaCl, 2.2 mM CaCl2; previously found (Ghosh 2012); cited from earlier work

Palmitoyl-IAAAEEEEK(DO3A:Gd)-NH2 (Palmitoyl-IAAAEEEEK(DO3A)-NH2; also: DO3A chelates Gd) [PA5]
relaxivity of water protons ([1]; pH 4 (nanofibers)): 8.3 mM⁻¹ s⁻¹
relaxivity of water protons ([1]; pH 10 (spherical micelles)): 6.6 mM⁻¹ s⁻¹
pH of concentration independent transition from spherical micelles to nanofibers [2]: 6.0
